According to PMC9575579 (European Journal of Medicinal Chemistry, 2022):
Marks after values point to notes of the source that are not given here.

Tests used:
SARS-CoV-2 = test: microbe, parasite or virus in culture; conditions: for EC50: Severe acute respiratory syndrome coronavirus 2, Vero, 72 h
Vero E6-GFP cells = conditions: African green monkey, 2 µM
SARS-CoV-2 M^pro = SARS-CoV-2 M^pro (Severe acute respiratory syndrome coronavirus 2, UniProt P0DTD1); test: biochemical; type: biochemical; conditions: for IC50: M^pro SARS-COV-2 IC50
MERS-CoV M^pro = MERS-CoV M^pro (Middle East respiratory syndrome-related coronavirus, UniProt K9N7C7); test: biochemical; conditions: for inhibition at 30 µM: read-out: % of inhibition of the M^pro at 30 μM (MERS)
MERS-CoV M^pro, sequence (K9N7C7 3248-3553 limits assumed): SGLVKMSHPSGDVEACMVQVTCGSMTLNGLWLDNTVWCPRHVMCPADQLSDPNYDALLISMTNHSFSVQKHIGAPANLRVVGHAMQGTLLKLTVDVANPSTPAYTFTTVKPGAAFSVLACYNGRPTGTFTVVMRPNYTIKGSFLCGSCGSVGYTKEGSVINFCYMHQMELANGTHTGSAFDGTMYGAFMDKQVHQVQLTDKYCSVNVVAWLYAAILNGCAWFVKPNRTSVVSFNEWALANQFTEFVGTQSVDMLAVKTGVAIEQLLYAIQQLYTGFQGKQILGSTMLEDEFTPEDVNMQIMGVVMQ

For `O=C(NCCc1ccccc1)C(=O)[C@H](C[C@@H]1CCNC1=O)NC(=O)[C@@H]1CCCN1C(=O)OCc1ccccc1` [9a, (S)-benzyl2-((S)-3,4-dioxo-1-((S)-2-oxopyrrolidin-3-yl)-4-(phenethylamino)butan-2ylcarbamoyl)pyrrolidine-1-carboxylate], the “EC50 + CP100356 (2 μM)” value (SARS-CoV-2) was “did not change” and the “Residual cell viability at the highest concentration tested” value (“Residual cell viability” below) (Vero E6-GFP cells) was >100 (100%) ^e.
In the case of `O=C(NCCc1ccccc1F)C(=O)[C@H](C[C@@H]1CCNC1=O)NC(=O)[C@@H]1CCCN1C(=O)OCc1ccccc1` [9b, (S)-benzyl2-((S)-4-(2-fluorophenethylamino)-3,4-dioxo-1-((S)-2-oxopyrrolidin-3-yl)butan-2-ylcarbamoyl)pyrrolidine-1-carboxylate], the “M^pro SARS-COV-2 IC50” value (SARS-CoV-2 M^pro) is reported as “submicromolar range”.
For `COc1ccccc1CCNC(=O)C(=O)[C@H](C[C@@H]1CCNC1=O)NC(=O)[C@@H]1CCCN1C(=O)OCc1ccccc1` [9c, (S)-benzyl2-((S)-4-(2-methoxyphenethylamino)-3,4-dioxo-1-((S)-2-oxopyrrolidin-3-yl)butan-2-ylcarbamoyl)pyrrolidine-1-carboxylate], the “M^pro SARS-COV-2 IC50” value (SARS-CoV-2 M^pro) was “submicromolar range”.
With `O=C(NCc1ccccc1)C(=O)[C@H](C[C@@H]1CCNC1=O)NC(=O)[C@@H]1CCCN1C(=O)COc1ccc(Cl)cc1Cl` [9d, (S)–N-((S)-4-(benzylamino)-3,4-dioxo-1-((S)-2-oxopyrrolidin-3-yl)butan-2-yl)-1-(2-(2,4-dichlorophenoxy)acetyl)pyrrolidine-2-carboxamide] the “Residual cell viability” value (Vero E6-GFP cells) was >100 (100%) ^e.
With `O=C(NCCc1ccccc1)C(=O)[C@H](C[C@@H]1CCNC1=O)NC(=O)[C@@H]1CCCN1C(=O)COc1ccc(Cl)cc1Cl` [9e, (S)-1-(2-(2,4-dichlorophenoxy)acetyl)-N-((S)-3,4-dioxo-1-((S)-2-oxopyrrolidin-3-yl)-4-(phenethylamino)butan-2-yl)pyrrolidine-2-carboxamide] the “Residual cell viability” value (Vero E6-GFP cells) was >100 (100%) ^e.
`COc1ccc(CNC(=O)C(=O)[C@H](C[C@@H]2CCNC2=O)NC(=O)[C@@H]2CCCN2C(=O)COc2ccc(Cl)cc2Cl)c(OC)c1` [9f, (S)-1-(2-(2,4-dichlorophenoxy)acetyl)-N-((S)-4-(2,4-dimethoxybenzylamino)-3,4-dioxo-1-((S)-2-oxopyrrolidin-3-yl)butan-2-yl)pyrrolidine-2-carboxamide] was tested, and the EC50 (SARS-CoV-2) was over 100 µM, the IC50 (MERS-CoV M^pro) was over 30 µM and the inhibition at 30 µM (MERS-CoV M^pro) was 59%. For the same compound, the IC50 (SARS-CoV-2 M^pro) was 1.93 ± 0.16 µM.
`O=C(NCc1ccccc1C(F)(F)F)C(=O)[C@H](C[C@@H]1CCNC1=O)NC(=O)[C@@H]1CCCN1C(=O)COc1ccc(Cl)cc1Cl` [9h, (S)-1-(2-(2,4-dichlorophenoxy)acetyl)-N-((S)-3,4-dioxo-1-((S)-2-oxopyrrolidin-3-yl)-4-(2-(trifluoromethyl)benzylamino)butan-2-yl)pyrrolidine-2-carboxamide] gave an EC50 (SARS-CoV-2) of over 100 µM, an IC50 (MERS-CoV M^pro) of over 30 µM and an inhibition at 30 µM (MERS-CoV M^pro) of 73%. For the same compound, the IC50 (SARS-CoV-2 M^pro) was over 30 µM and the inhibition at 30 µM (SARS-CoV-2 M^pro; read-out: % of inhibition of the M^pro at 30 μM (SARS-CoV-2)) was 57%.
